Assay results taken from PubChem BioAssay (NCI).
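Briefly, cells in 96-well plates were exposed to five compound concentrations for 48 h, and endpoints were estimated by linear interpolation. GI50: concentration for 50% inhibition of growth. Definition used: TGI = concentration required for complete inhibition of growth.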

Key:
Assay in all cases: NCI anticancer screen, dose series, 48 h
SF-295 CNS = system: SF-295 CNS
U251 CNS = system: U251 CNS
MALME-3M melanoma = system: MALME-3M melanoma
UO-31 renal = system: UO-31 renal
CAKI-1 renal = system: CAKI-1 renal
SW-620 colon = system: SW-620 colon
LOX IMVI melanoma = system: LOX IMVI melanoma
NCI/ADR-RES ovarian = system: NCI/ADR-RES ovarian
SK-MEL-5 melanoma = system: SK-MEL-5 melanoma

CC(C)/C(Cl)=N\OC(NC(=O)P(=O)(c1ccccc1)c1ccccc1)(C(F)(F)F)C(F)(F)F
TGI (SF-295 CNS): 79.5 µM
TGI (U251 CNS): 12 µM
TGI (MALME-3M melanoma): 20.9 µM
TGI (UO-31 renal): 21 µM
TGI (CAKI-1 renal): 46.3 µM
TGI (SW-620 colon): 53.9 µM
TGI (LOX IMVI melanoma): 29.6 µM
TGI (NCI/ADR-RES ovarian): 42.2 µM
TGI (SK-MEL-5 melanoma): 26.7 µM

CN(C)CCn1c(CO)nc2c1c(=O)n(C)c(=O)n2C
TGI (SF-295 CNS): > 100 µM
TGI (U251 CNS): > 100 µM
TGI (MALME-3M melanoma): > 100 µM
TGI (UO-31 renal): > 100 µM
TGI (CAKI-1 renal): > 100 µM
TGI (SW-620 colon): > 100 µM
TGI (LOX IMVI melanoma): > 100 µM
TGI (NCI/ADR-RES ovarian): > 100 µM
TGI (SK-MEL-5 melanoma): > 100 µM

NCC(O)CSCc1ccc(Cl)cc1 (configuration not stated)
TGI (SF-295 CNS): > 100 µM
TGI (U251 CNS): > 100 µM
TGI (MALME-3M melanoma): > 100 µM
TGI (UO-31 renal): > 100 µM
TGI (CAKI-1 renal): > 100 µM
TGI (SW-620 colon): > 100 µM
TGI (LOX IMVI melanoma): > 100 µM
TGI (NCI/ADR-RES ovarian): > 100 µM
TGI (SK-MEL-5 melanoma): > 100 µM

CC(C)C(C/C=C1\CC(CO)(COC(=O)C2CCCCC2)OC1=O)C(C)C (configuration not stated)
TGI (SF-295 CNS): 33.2 µM
TGI (U251 CNS): 44.1 µM
TGI (MALME-3M melanoma): 35.5 µM
TGI (UO-31 renal): 32.1 µM
TGI (CAKI-1 renal): 43.8 µM
TGI (SW-620 colon): 40.5 µM
TGI (LOX IMVI melanoma): 32.3 µM
TGI (NCI/ADR-RES ovarian): 45.1 µM
TGI (SK-MEL-5 melanoma): > 100 µM

C/C(=N\Nc1nc2ccccc2n1C)c1cc2ccccc2cn1
TGI (SF-295 CNS): 5.39 µM
TGI (U251 CNS): 4.59 µM
TGI (MALME-3M melanoma): 3.03 µM
TGI (UO-31 renal): 5.03 µM
TGI (CAKI-1 renal): 12.5 µM
TGI (SW-620 colon): 11.3 µM
TGI (LOX IMVI melanoma): 4.33 µM
TGI (NCI/ADR-RES ovarian): 1.55 µM
TGI (SK-MEL-5 melanoma): 12.4 µM

O=c1oc(C(C(F)(F)F)C(F)(F)F)nc2ccccc12
TGI (SF-295 CNS): > 100 µM
TGI (U251 CNS): > 100 µM
TGI (MALME-3M melanoma): > 100 µM
TGI (UO-31 renal): > 100 µM
TGI (CAKI-1 renal): > 100 µM
TGI (SW-620 colon): > 100 µM
TGI (LOX IMVI melanoma): > 100 µM
TGI (NCI/ADR-RES ovarian): > 100 µM
TGI (SK-MEL-5 melanoma): > 100 µM

COc1cc(C2c3cc4c(cc3C3OC[C@@H]2C3CO)OCO4)cc(OC)c1OC (some centres not stated)
TGI (SF-295 CNS): > 100 µM
TGI (U251 CNS): > 100 µM
TGI (MALME-3M melanoma): > 100 µM
TGI (UO-31 renal): > 100 µM
TGI (CAKI-1 renal): > 100 µM
TGI (SW-620 colon): > 100 µM
TGI (LOX IMVI melanoma): > 100 µM
TGI (NCI/ADR-RES ovarian): 39.3 µM
TGI (SK-MEL-5 melanoma): 27.9 µM

O=c1[nH]n(Cc2ccccc2)c2ccc([N+](=O)[O-])cc12
TGI (SF-295 CNS): > 100 µM
TGI (U251 CNS): > 100 µM
TGI (MALME-3M melanoma): > 100 µM
TGI (UO-31 renal): > 100 µM
TGI (CAKI-1 renal): > 100 µM
TGI (SW-620 colon): > 100 µM
TGI (LOX IMVI melanoma): > 100 µM
TGI (NCI/ADR-RES ovarian): > 100 µM
TGI (SK-MEL-5 melanoma): > 100 µM

CC(C)(C)[Si](C)(C)OCc1cccc(OCCOc2cccc(CO[Si](C)(C)C(C)(C)C)c2[N+](=O)[O-])c1[N+](=O)[O-]
TGI (SF-295 CNS): > 100 µM
TGI (U251 CNS): > 100 µM
TGI (MALME-3M melanoma): > 100 µM
TGI (UO-31 renal): > 100 µM
TGI (CAKI-1 renal): > 100 µM
TGI (SW-620 colon): > 100 µM
TGI (LOX IMVI melanoma): > 100 µM
TGI (NCI/ADR-RES ovarian): > 100 µM
TGI (SK-MEL-5 melanoma): > 100 µM

C#CCn1c(=O)c(C)cn(/C(=C\C(=O)OCC)C(=O)OCC)c1=O
TGI (SF-295 CNS): 42.3 µM
TGI (U251 CNS): 15 µM
TGI (MALME-3M melanoma): 5.6 µM
TGI (UO-31 renal): 25.5 µM
TGI (CAKI-1 renal): 2.86 µM
GI50 (SW-620 colon): 2.14 µM
TGI (SW-620 colon): > 100 µM
TGI (LOX IMVI melanoma): > 50.2 µM
TGI (NCI/ADR-RES ovarian): 17.1 µM
TGI (SK-MEL-5 melanoma): > 100 µM

Cc1nnc2n1N=C(c1ccc(Cl)cc1Cl)/C(=C/c1ccc(-c3ccc([N+](=O)[O-])cc3Cl)o1)S2
GI50 (SF-295 CNS): 43.5 µM
TGI (SF-295 CNS): > 100 µM
GI50 (U251 CNS): 14.9 µM
TGI (U251 CNS): 30.2 µM
GI50 (MALME-3M melanoma): 21.2 µM
TGI (MALME-3M melanoma): 56.1 µM
GI50 (UO-31 renal): 14.8 µM
TGI (UO-31 renal): 31 µM
GI50 (CAKI-1 renal): 25.2 µM
TGI (CAKI-1 renal): 84.8 µM
GI50 (SW-620 colon): 13.3 µM
TGI (SW-620 colon): 33 µM
GI50 (LOX IMVI melanoma): 12.3 µM
TGI (LOX IMVI melanoma): 27.4 µM
GI50 (NCI/ADR-RES ovarian): 18.4 µM
TGI (NCI/ADR-RES ovarian): 37.4 µM
GI50 (SK-MEL-5 melanoma): 16.5 µM
TGI (SK-MEL-5 melanoma): 32.6 µM

COc1ccc2cc(CNCCCCCCNCc3ccc4cc(OC)ccc4c3)ccc2c1
TGI (SF-295 CNS): 0.961 µM
TGI (U251 CNS): 0.601 µM
TGI (MALME-3M melanoma): 2.62 µM
TGI (UO-31 renal): 3.01 µM
TGI (CAKI-1 renal): 2.71 µM
TGI (SW-620 colon): 0.351 µM
TGI (LOX IMVI melanoma): 0.325 µM
TGI (NCI/ADR-RES ovarian): 2.74 µM
TGI (SK-MEL-5 melanoma): 2.67 µM

CCCCCCCCCCCCCCCCCCNc1nc(=O)n(C2CC(O)C(COP(=O)(O)O)O2)cc1F (configuration not stated)
TGI (SF-295 CNS): > 100 µM
TGI (U251 CNS): > 100 µM
TGI (MALME-3M melanoma): > 100 µM
TGI (UO-31 renal): > 100 µM
TGI (CAKI-1 renal): > 100 µM
TGI (SW-620 colon): > 100 µM
TGI (LOX IMVI melanoma): > 100 µM
TGI (NCI/ADR-RES ovarian): > 100 µM
TGI (SK-MEL-5 melanoma): > 100 µM

C=CCOn1c(C=C)nc2ccc(C)cc21
TGI (SF-295 CNS): 82.6 µM
TGI (U251 CNS): 26 µM
TGI (MALME-3M melanoma): 38.9 µM
TGI (UO-31 renal): 27.4 µM
TGI (CAKI-1 renal): 49.3 µM
TGI (SW-620 colon): 40.8 µM
TGI (LOX IMVI melanoma): 37.5 µM
TGI (NCI/ADR-RES ovarian): > 100 µM
TGI (SK-MEL-5 melanoma): 31.4 µM

CC(C)(C)n1c(=O)[nH]c(=O)n1C(C)(C)C
TGI (SF-295 CNS): > 100 µM
TGI (U251 CNS): > 100 µM
TGI (MALME-3M melanoma): > 100 µM
TGI (UO-31 renal): > 100 µM
TGI (CAKI-1 renal): > 100 µM
TGI (SW-620 colon): > 100 µM
TGI (LOX IMVI melanoma): > 100 µM
TGI (NCI/ADR-RES ovarian): > 100 µM
TGI (SK-MEL-5 melanoma): > 100 µM

CN(C)Cc1cc(C(=O)/C=C/c2ccccc2)cc(CN(C)C)c1O
TGI (SF-295 CNS): 39.6 µM
TGI (U251 CNS): > 100 µM
TGI (MALME-3M melanoma): 44.9 µM
TGI (UO-31 renal): 40.7 µM
TGI (CAKI-1 renal): 61.8 µM
TGI (SW-620 colon): 45.1 µM
TGI (LOX IMVI melanoma): 17.7 µM
TGI (NCI/ADR-RES ovarian): > 100 µM
TGI (SK-MEL-5 melanoma): 38.4 µM

CCN(CC)C(=S)SS(=O)(=O)c1cccc(N)c1
TGI (SF-295 CNS): > 100 µM
TGI (U251 CNS): > 100 µM
TGI (MALME-3M melanoma): > 100 µM
TGI (UO-31 renal): > 100 µM
TGI (CAKI-1 renal): > 100 µM
TGI (SW-620 colon): > 100 µM
TGI (LOX IMVI melanoma): > 100 µM
TGI (NCI/ADR-RES ovarian): > 100 µM
TGI (SK-MEL-5 melanoma): > 100 µM

C=C=C(CC(CC(=C)Br)(C(=O)OC)C(=O)OC)S(=O)(=O)c1ccccc1
TGI (SF-295 CNS): 26.9 µM
TGI (U251 CNS): 2.95 µM
TGI (MALME-3M melanoma): 4.11 µM
TGI (UO-31 renal): 3.69 µM
TGI (CAKI-1 renal): 2.71 µM
TGI (SW-620 colon): 2.99 µM
TGI (LOX IMVI melanoma): 1.7 µM
TGI (NCI/ADR-RES ovarian): 5.96 µM
TGI (SK-MEL-5 melanoma): 10.3 µM
